Results from patent US20260015357A1, “MODULATORS OF NLRP3 INFLAMMASOME AND RELATED PRODUCTS AND METHODS” (Neumora Therapeutics, Inc., priority 2022, published 2026).

How the values were obtained:
NLRP3 inflammasome = target: T1, NLRP3 inflammasome (Homo sapiens, UniProt Q96P20); assay: NLRP3 inflammasome activation in LPS-primed, nigericin-activated THP1 macrophages, IL-1β AlphaLISA; format: cell-based; conditions: PMA-differentiated, 1 hr compound, Nigericin 6.7 uM 3 hrs, IL-1β in supernatant
T1 construct: host or cells: THP1 human acute monocytic leukemia cells, PMA-differentiated, LPS-primed
T1 sequence (Q96P20 whole entry): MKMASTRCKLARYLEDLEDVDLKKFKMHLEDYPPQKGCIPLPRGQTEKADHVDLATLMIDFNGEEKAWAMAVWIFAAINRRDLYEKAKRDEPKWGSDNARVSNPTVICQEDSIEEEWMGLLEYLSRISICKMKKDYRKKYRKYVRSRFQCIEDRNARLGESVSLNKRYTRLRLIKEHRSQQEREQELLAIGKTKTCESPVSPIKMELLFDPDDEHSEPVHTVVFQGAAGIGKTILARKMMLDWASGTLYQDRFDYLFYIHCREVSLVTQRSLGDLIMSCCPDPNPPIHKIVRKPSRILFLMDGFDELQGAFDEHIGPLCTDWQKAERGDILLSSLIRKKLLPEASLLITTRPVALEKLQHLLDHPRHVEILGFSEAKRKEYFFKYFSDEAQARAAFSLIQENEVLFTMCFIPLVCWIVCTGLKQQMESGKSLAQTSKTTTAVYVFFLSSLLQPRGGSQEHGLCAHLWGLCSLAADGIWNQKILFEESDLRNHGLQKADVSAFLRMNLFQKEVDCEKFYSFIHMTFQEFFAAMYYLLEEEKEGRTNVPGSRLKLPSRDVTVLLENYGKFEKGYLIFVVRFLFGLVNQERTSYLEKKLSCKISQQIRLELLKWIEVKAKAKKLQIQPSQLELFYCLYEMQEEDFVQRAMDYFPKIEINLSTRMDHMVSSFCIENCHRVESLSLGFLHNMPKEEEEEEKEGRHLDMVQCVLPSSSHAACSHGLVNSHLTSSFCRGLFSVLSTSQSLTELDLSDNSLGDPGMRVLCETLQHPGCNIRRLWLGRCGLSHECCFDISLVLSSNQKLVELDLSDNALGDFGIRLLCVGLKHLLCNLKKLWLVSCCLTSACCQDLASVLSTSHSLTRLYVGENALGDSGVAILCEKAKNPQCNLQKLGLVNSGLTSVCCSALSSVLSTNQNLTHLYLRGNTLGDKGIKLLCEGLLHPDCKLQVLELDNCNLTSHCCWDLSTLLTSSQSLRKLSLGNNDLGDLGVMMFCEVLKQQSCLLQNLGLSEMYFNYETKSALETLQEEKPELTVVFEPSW
Protocol: (§1) NLRP3 Inflammasome Activation and Cell Viability Assessment in THP1 Macrophages
(§2) THP1—Human acute monocytic leukemia cells were cultured (ATCC, cat #TIB-202) in Gibco RPMI-1640 medium (ThermoFisher cat #72400054) supplemented with 10% Heat Inactivated FBS at density between 3-8×10^5 viable cells/mi. The cells were then subcultured when the cell concentration reached 8×10^5 cells/mL (every 2-3 days).
(§3) The parameter wells were filled with 50 ul PBS and incubated at 37° C., 5% CO2 for 48 hrs.
(§4) After 48 hrs incubation, the PMA containing media was removed, and changed for 40 ul/well of fresh DMEM, 10% FBS, 1× GlutaMax and incubated at 37° C., 5% CO2 for 24 hrs.
(§5) The following day the cells were primed with LPS (E. coli) (Sigma, cat #L3129) […] in DMEM, 10% FBS, 1× GlutaMax for 3 hrs at 37° C., 5% CO2.
(§6) Following the LPS priming step, the cells were treated with compounds at 10 uM top final concentration, 1:4 dilution, 8 times: (10 uM, 2.5 uM, 0.625 uM, 0.156 uM, 0.039 uM, 0.0097 uM, 0.0024 uM, 0.0006 uM). DMSO was used as a vehicle control, and MCC950 (InvivoGen, cat #inh-mcc) was used at 1 uM as a positive control, and incubated for 1 hrs at 37° C., 5% CO2.
(§7) Following the 1 hr compound incubation, the NLRP3 inflammasome activation step was conducted by treating cells with Nigericin (InvivoGen, cat #tlrl-nig) at 6.7 uM final concentration for 3 hrs at 37° C., 5% CO2.
(§8) Thereafter, 30 ul samples of cells' supernatants were collected for cytokine analysis which was conducted on Hu IL-1β AlphaLISA (Perkin Elmer, cat #AL220C) and Hu IL-6 AlphaLISA (Perkin Elmer, cat #AL220C). The cells' viability was assessed by performing CellTiter-Glo Luminescent Assay (Promega, cat #G7572) according to the manufacturer's protocol.

IL-6 = IL-6 in supernatants of LPS-primed, nigericin-treated THP1 macrophages, Hu IL-6 AlphaLISA; format: cell-based; conditions: Homo sapiens, THP-1, PMA-differentiated, 1 hr compound, Nigericin 6.7 uM 3 hrs, IL-6 in supernatant
Protocol: as §1, §2, §3, §4, §5, §6, §7, §8

SMILES | IC50 (NLRP3 inflammasome) [nM] | IC50 (IL-6) [µM]
CN1CCC[C@@H](Nc2nnc(-c3ccc(C(F)(F)F)cc3)c3cc[nH]c23)C1 (single isomer, unassigned) [Compound 1] | < 10 | 1 to 5
COc1cc(C)ccc1-c1nnc(N[C@@H]2CCCN(C)C2)c2c1cnn2C [Compound 167] | 1000 to 10000 | ≥ 10
CN1CCC[C@@H](Nc2nnc(-c3ccccc3C(F)F)c3[nH]ccc23)C1 [Compound 13] | ≥ 10000 | ≥ 10
C[N+]1(C)CCC[C@@H](Nc2nnc(-c3ccc(C(F)(F)F)cc3)c3nc[nH]c23)C1 [Compound 92] | ≥ 10000 | ≥ 10
Cc1cc(C(F)(F)F)ccc1-c1nnc(N[C@@H]2CCCN(C)C2)c2cc[nH]c12 [Compound 3] | 500 to 1000 | ≥ 10
CN1CCC[C@@H](Nc2nnc(-c3ncc(C#N)cc3O)c3cnn(C)c23)C1 [Compound 111] | 100 to 500 | ≥ 10
Cc1cc(C(F)(F)F)ccc1-c1nnc(N[C@@H]2CCCN(C)C2)c2c1ccn2C [Compound 123] | < 10 | 1 to 5
Cn1ccc2c(-c3ccc(C#N)cc3O)nnc(N[C@@H]3CCCN(CCN)C3)c21 [Compound 164] | 100 to 500 | ≥ 10
Cn1ccc2c(-c3ccc(C#N)cc3O)nnc(N[C@@H]3CCCN(c4cccnc4)C3)c21 [Compound 163] | ≥ 10000 | ≥ 10
Cc1cc(C#N)cnc1-c1nnc(N[C@@H]2CCCN(C)C2)c2c1ccn2C [Compound 132] | 1000 to 10000 | ≥ 10
CN1CCC[C@@H](N(C)c2nnc(-c3ccccc3O)c3ccn(C)c23)C1 [Compound 18] | 1000 to 10000 | 1 to 5
COCCN1CCC[C@@H](Nc2nnc(-c3ccc(C#N)cc3O)c3cnsc23)C1 [Compound 154] | 10 to 100 | ≥ 10
CN1CCC[C@@H](Nc2nnc(-c3ccc(Cl)cc3)c3cc[nH]c23)C1 [Compound 10] | 10 to 100 | 1 to 5
CN1CCC[C@@H](Oc2nnc(-c3ccc(C(F)(F)F)cc3)c3ccoc23)C1 [Compound 88] | 1000 to 10000 | ≥ 10
CN1CCC[C@@H](Nc2nnc(-c3ccc(C(F)(F)F)cc3)c3c2CCO3)C1 [Compound 59] | ≥ 10000 | ≥ 10
CN1CCC[C@@H](Oc2nnc(-c3ccc(C(F)(F)F)cc3)c3cc[nH]c23)C1 [Compound 39] | 100 to 500 | 5 to 10
Cc1cc(C#N)cnc1-c1nnc(N[C@@H]2CCCN(C)C2)c2c1cnn2C [Compound 139] | ≥ 10000 | ≥ 10
Cc1cc(C#N)ccc1-c1nnc(N[C@@H]2CCCN(C)C2)c2c1cnn2C [Compound 112] | 10 to 100 | ≥ 10
CN1CCC[C@@H](Nc2nnc(-c3ccc(C(F)(F)F)cc3)c3c2CCC3)C1 [Compound 65] | < 10 | 5 to 10
Cn1ccc2c(-c3ccc(C#N)cc3O)nnc(N[C@@H]3CCCN(c4ccncc4)C3)c21 [Compound 162] | 1000 to 10000 | ≥ 10
Cn1ccc2c(-c3ccc(C#N)cc3O)nnc(N[C@@H]3CCCN(CC(C)(C)O)C3)c21 [Compound 152] | 10 to 100 | ≥ 10
CNCCN1CCC[C@@H](Nc2nnc(-c3ccc(C#N)cc3O)c3ccn(C)c23)C1 [Compound 155] | 100 to 500 | ≥ 10
CN1CCC[C@@H](Nc2nnc(-c3ccc(C(F)(F)F)cc3)c3sccc23)C1 [Compound 62] | 10 to 100 | 1 to 5
CN1CCC[C@@H](Nc2nnc(-c3ccc(C(F)(F)F)cc3)c3ccsc23)C1 [Compound 61] | 10 to 100 | ≥ 10
CN1CCCC(Cc2nnc(-c3ccc(C(F)(F)F)cc3)c3cc[nH]c23)C1 (stereo not drawn) [Compound 83] | 10 to 100 | 1 to 5
Cc1cc(C#N)cc(C)c1-c1nnc(N[C@@H]2CCCN(C)C2)c2c1ccn2C [Compound 126] | ≥ 10000 | ≥ 10
CN1CCC[C@@H](Oc2nnc(-c3ccc(F)cc3O)c3ccoc23)C1 [Compound 91] | 100 to 500 | ≥ 10
